Test results published in patent publication US10174040B2, “Pyrrolopyrimidine compound or salt thereof and compositions containing the pyrrolopyrimidine compound or salt thereof” (TAIHO PHARMACEUTICAL CO., LTD., priority 2014, dated 2019).

What was measured:
[1] = Body weight change, antitumor test 3 (CCRF-CEM mice); type: in vivo, BALB/cAJcl-nu/nu mice (nude mice); conditions: for change of the body weight compared with the control: CCRF-CEM nude mice, Test Example 7
Experimental: (§1) The length and the width of the implanted tumor and the body weight were measured. The tumor volume (TV) was calculated using the following equation (equation D). TV (mm3)=(length×width^2)/2, wherein the unit of length and width is mm (equation D).
(§2) Thereafter, the length and the width of the tumor and the body weight (BWn) on day n were measured over time in the same manner, and the TVn of each mouse was calculated. Further, the relative tumor volume (RTVn) was calculated based on the TVn of each mouse using the following equation (equation E); the treatment/control (T/C) value (%) was calculated based on the mean RTVn of each drug administration group using the following equation (equation F); and the weight change rate (BWCn) was calculated using the following equation (equation G). RTVn=TVn/TV1 (equation E) T/Cn(%)=(mean RTV of each drug administration group on the last day of the test)/(mean RTV of the control group on the last day of the test)×100 (equation F) BWCn (%)=(BWn−BW1)/BW1×100 (equation G) FIGS. 1 and 2, and Table 21 below show the results.
(§3) The tumor growth inhibitory effects on human tumors were evaluated as in Test Example 5, except that the compound hydrochloride obtained in Example 122, the compound hydrochloride (Example 64), and human acute lymphoblastic leukemia (ALL) CCRF-CEM cell lines were used, and the animals were assigned to each group in accordance with a stratified randomization procedure when the TV reached 140 to 380 mm3.
At this time, the cell lines were washed in PBS, and suspended in 50% PBS and 50% Matrigel basement membrane matrix (#356237; produced by BD Biosciences) at a concentration of 1×10^8 cells/mL. 0.1 mL of this cell suspension was subcutaneously implanted to the right chest of 6-week-old BALB/cAJcl-nu/nu mice (nude mice) (produced by CLEA Japan, Inc.). […]

[2] = test system: human acute lymphoblastic leukemia (ALL) CCRF-CEM cell lines; assay: Antitumor effect on tumor cells transplanted into mice 3 (CCRF-CEM, tumor volume); type: in vivo, BALB/cAJcl-nu/nu mice (nude mice); conditions: Dunnett's test; CCRF-CEM in nude mice; compound hydrochlorides, intravenous
Experimental: as §1, §2, §3
At this time, the cell lines were washed in PBS, and suspended in 50% PBS and 50% Matrigel basement membrane matrix (#356237; produced by BD Biosciences) at a concentration of 1×10^8 cells/mL. 0.1 mL of this cell suspension was subcutaneously implanted to the right chest of 6-week-old BALB/cAJcl-nu/nu mice (nude mice) (produced by CLEA Japan, Inc.). The compound hydrochloride (Example 122) was intravenously administered in an amount of 5 mL per 1 kg of body weight on days 1 and 8, and the compound hydrochloride (Example 133) was intravenously administered in an amount of 5 mL per 1 kg of body weight on days 1 and 8.

[3] = test system: human acute T lymphoblastic leukemia CCRF-CEM cell lines; assay: Cell growth inhibition 1 (CellTiter-Glo), CCRF-CEM; type: cell-based; conditions: 72 hours culture with compound
[4] = test system: human lung cancer A-427 cell line; assay: Cell growth inhibition 2 (CellTiter-Glo), A-427; type: cell-based; conditions: 384-well plate
carbonic anhydrase II = carbonic anhydrase II (Homo sapiens (Human), UniProt P00918); assay: Carbonic anhydrase II enzyme activity inhibition (4-NPA esterase activity); type: biochemical
[5] = test system: human breast cancer MDA-MB-453 cell line; assay: Cell growth inhibition 2 (CellTiter-Glo), MDA-MB-453; type: cell-based; conditions: 384-well plate
[6] = Body weight change, antitumor test 2 (HCT-116 mice); type: in vivo, BALB/cAJcl-nu/nu mice; conditions: HCT-116 xenograft in nude mice, 120 mg/kg/day, administration days 1, 4, 8, 11, day 15
[7] = test system: human multiple myeloma U266B1 cell line; assay: Cell growth inhibition 2 (CellTiter-Glo), U266B1; type: cell-based; conditions: 384-well plate
[8] = test system: human prostate cancer LNCAP.FGC cell line; assay: Cell growth inhibition 2 (CellTiter-Glo), LNCAP.FGC; type: cell-based; conditions: 384-well plate
[9] = test system: human acute leukemia MV-4-11 cell line; assay: Cell growth inhibition 2 (CellTiter-Glo), MV-4-11; type: cell-based; conditions: MV4-11, 384-well plate
[10] = test system: human pancreatic cancer Capan-1 cell line; assay: Cell growth inhibition 2 (CellTiter-Glo), Capan-1; type: cell-based; conditions: 384-well plate
[11] = test system: Human colon cancer HCT-116 cell lines; assay: Antitumor effect on tumor cells transplanted into mice 1 (HCT-116, tumor volume); type: in vivo, BALB/cAJcl-nu/nu mice; conditions: HCT-116 in nude mice; for RTV15 comparison with control: Dunnett's test
Experimental: (§4) Human colon cancer HCT-116 cell lines were washed in PBS and suspended at a concentration of 4×10^7 cells/mL. 0.1 mL of this cell suspension was subcutaneously implanted in the right chest of 6-week-old BALB/cAJcl-nu/nu mice (produced by CLEA Japan, Inc.).
as §1
(§5) When the TV reached 100 to 300 mm3, the animals were assigned to each group in accordance with a stratified randomization procedure. The day was considered day 1, the TV on the day was considered TV1, and the body weight on the day was considered BW1.
(§6) A required amount of the test compound was weighed to prepare an administration solution.
as §2

[12] = test system: human osteo- and soft tissue sarcoma SJCRH30 cell line; assay: Cell growth inhibition 2 (CellTiter-Glo), SJCRH30; type: cell-based; conditions: 384-well plate
[13] = test system: human diffuse large B-cell lymphoma DB cell line; assay: Cell growth inhibition 2 (CellTiter-Glo), DB; type: cell-based; conditions: 384-well plate
[14] = test system: Human colon cancer HCT-116 cell lines; assay: Antitumor effect on tumor cells transplanted into mice 2 (HCT-116, tumor volume); type: in vivo, BALB/cAJcl-nu/nu mice; conditions: Dunnett's test; HCT-116 in nude mice; hydrochloride compound of Example 55
[15] = test system: human colon cancer HCT116 cell line; assay: Cell growth inhibition 2 (CellTiter-Glo), HCT116; type: cell-based; conditions: HCT-116, 384-well plate
[16] = test system: human skin cancer A-431 cell line; assay: Cell growth inhibition 2 (CellTiter-Glo), A-431; type: cell-based; conditions: 384-well plate
[17] = Body weight change, antitumor test 1 (HCT-116 mice); type: in vivo, BALB/cAJcl-nu/nu mice
Experimental: as §4, §1, §5, §6
Thereafter, the length and the width of the tumor and the body weight (BWn) on day n were measured over time in the same manner, and the TVn of each mouse was calculated. Further, the relative tumor volume (RTVn) was calculated based on the TVn of each mouse using the following equation (equation E); the treatment/control (T/C) value (%) was calculated based on the mean RTVn of each drug administration group using the following equation (equation F); and the weight change rate (BWCn) was calculated using the following equation (equation G). […]

[18] = target: NAE (heterodimer of APPBP1 and UBA3) (Homo sapiens (Human), UniProt Q8TBC4); assay: Nedd8 conjugation inhibitory activity (AlphaScreen assay); type: biochemical; conditions: purified NAE, GST-UBC12, Biotin-Nedd8, ATP
Chain of NAE (heterodimer of APPBP1 and UBA3) (Q8TBC4 whole entry): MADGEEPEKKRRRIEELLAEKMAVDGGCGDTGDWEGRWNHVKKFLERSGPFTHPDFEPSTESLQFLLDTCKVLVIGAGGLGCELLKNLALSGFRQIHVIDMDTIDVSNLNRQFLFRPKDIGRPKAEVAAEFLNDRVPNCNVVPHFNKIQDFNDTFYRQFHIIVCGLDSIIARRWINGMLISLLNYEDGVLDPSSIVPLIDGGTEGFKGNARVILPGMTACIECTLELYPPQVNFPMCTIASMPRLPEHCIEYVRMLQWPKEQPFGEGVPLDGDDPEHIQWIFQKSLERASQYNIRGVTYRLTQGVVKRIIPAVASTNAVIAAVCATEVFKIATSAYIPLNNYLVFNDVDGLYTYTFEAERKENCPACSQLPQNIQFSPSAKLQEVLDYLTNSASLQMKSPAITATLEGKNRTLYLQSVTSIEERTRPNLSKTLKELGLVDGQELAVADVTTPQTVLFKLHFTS
Chain of NAE (heterodimer of APPBP1 and UBA3) (Q13564 whole entry partner): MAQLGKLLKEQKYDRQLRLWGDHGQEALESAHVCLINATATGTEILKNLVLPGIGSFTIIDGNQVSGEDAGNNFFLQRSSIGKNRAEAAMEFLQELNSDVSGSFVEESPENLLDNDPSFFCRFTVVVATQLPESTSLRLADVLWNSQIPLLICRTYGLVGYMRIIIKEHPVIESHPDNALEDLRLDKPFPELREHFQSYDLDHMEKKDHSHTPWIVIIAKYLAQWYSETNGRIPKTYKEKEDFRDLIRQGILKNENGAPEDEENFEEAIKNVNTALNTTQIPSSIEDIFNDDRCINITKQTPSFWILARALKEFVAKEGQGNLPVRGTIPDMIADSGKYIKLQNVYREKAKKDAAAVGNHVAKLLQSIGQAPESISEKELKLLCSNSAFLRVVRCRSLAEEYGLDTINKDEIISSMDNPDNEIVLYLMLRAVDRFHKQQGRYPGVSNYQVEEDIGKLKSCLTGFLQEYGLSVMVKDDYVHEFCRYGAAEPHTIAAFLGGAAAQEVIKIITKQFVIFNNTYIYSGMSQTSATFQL

In the case of `Nc1ncnc2c1c(C#Cc1cccc3ccccc13)cn2[C@@H]1O[C@H](COS(N)(=O)=O)[C@@H](O)[C@H]1O` [Example 133, [(2R,3S,4R,5R)-5-[4-Amino-5-[2-(1-naphthyl)ethynyl]pyrrolo[2,3-d]pyrimidin-7-yl]-3,4-dihydroxy-tetrahydrofuran-2-yl]methyl sulfamate], the “change of the body weight compared with the control” value (“change of the body weight” for short) [1] is reported as “almost the same as that of the control” and the “RTV comparison with control on day 15” value [2] is reported as “significantly lower than that of the control”.

With `Nc1ncnc2c1c(C#Cc1c(F)cc(N3CC[C@@H](O)C3)cc1F)cn2[C@@H]1C[C@H](CNS(N)(=O)=O)[C@@H](O)[C@H]1O` [Example 120, 4-Amino-5-[2-[2,6-difluoro-4-[(3R)-3-hydroxypyrrolidin-1-yl]phenyl]ethynyl]-7-[(1R,2S,3R,4R)-2,3-dihydroxy-4-[(sulfamoylamino)methyl]cyclopentyl]pyrrolo[2,3-d]pyrimidine] the “change of the body weight” value [1] was “almost the same as that of the control” and the “RTV comparison with control on day 15” value [2] was “significantly lower than that of the control”.

With `NS(=O)(=O)OC[C@@H]1C[C@@H](n2ccc3c(N[C@H]4CCc5ccccc54)ncnc32)C[C@@H]1O` [Comparative Example, N-[(1S)-1-indanyl]-7-[(1R)-3α-hydroxy-4α-(sulfamoyloxymethyl)cyclopentyl]-7H-pyrrolo[2,3-d]pyrimidin-4-amine] the “BWC15 (%) Mean ± SD” value ([1]; CCRF-CEM xenograft in nude mice, 120 mg/kg/day i.v., administration days 1, 4, 8, 11, day 15) was 6.1 ± 2.6%, the IC50 [3] was 0.089 µM and the IC50 [4] was 0.18 µM. For the same compound, the IC50 (carbonic anhydrase II; 4-nitrophenyl acetate esterase activity, absorbance at 405 nm) was 0.012 µM, the “inhibitory activity against carbonic anhydrase II” value (carbonic anhydrase II; summary in words of Table 18) was “exhibited inhibitory activity against carbonic anhydrase II” and the IC50 [5] was 1.9 µM. For the same compound, the “BWC15 (%) Mean ± SD” value [6] was −8.4 ± 3.2%, the IC50 [7] was 1.4 µM and the IC50 [8] was 0.41 µM. The IC50 [9] was 0.11 µM, the IC50 [10] was 1.5 µM and the “RTV comparison with control on day 15” value [2] was “significantly lower than that of the control”. The “RTV15 comparison with control” value [11] was “significantly lower than that of the control”, the IC50 [12] was over 10 µM and the IC50 [13] was 0.56 µM. For the same compound, the “RTV15 comparison with control” value [14] was “significantly lower than that of the control”, the IC50 [15] was 0.089 µM and the IC50 [16] was 0.75 µM. The “BWC15 (%) Mean ± SD” value ([17]; body weight change rate day 15, dose 120 mg/kg/day intravenous, administration day 1, 4, 8, 11) was −14.3 ± 5.1%.

For `Nc1ncnc2c1c(C#Cc1c(F)cccc1F)cn2[C@@H]1C=C(CNS(N)(=O)=O)[C@@H](O)[C@H]1O` [Example 128, 4-Amino-5-[2-(2,6-difluorophenyl)ethynyl]-7-[(1R,4R,5S)-4,5-dihydroxy-3-[(sulfamoylamino)methyl]cyclopent-2-en-1-yl]pyrrolo[2,3-d]pyrimidine], the IC50 [18] was 0.0033 µM.

For `CN1CCOc2c1ccc(F)c2C#Cc1cn([C@@H]2C[C@H](CNS(N)(=O)=O)[C@@H](O)[C@H]2O)c2ncnc(N)c12` [Example 122, 8-[2-[4-amino-7-[(1R,2S,3R,4R)-2,3-dihydroxy-4-[(sulfamoylamino)methyl]cyclopentyl]pyrrolo[2,3-d]pyrimidin-5-yl]ethynyl]-7-fluoro-4-methyl-2,3-dihydro-1,4-benzoxazine], the “RTV comparison with Comparative Example” value [2] was “significantly lower than that of the Comparative Example” and the “RTV comparison with control on day 15” value [2] was “significantly lower than that of the control”.

In the case of `CN1CCOc2c1ccc(F)c2C#Cc1cn([C@@H]2O[C@H](CNS(N)(=O)=O)[C@@H](O)[C@H]2O)c2ncnc(N)c12` [Example 64, 8-[2-[4-Amino-7-[(2R,3R,4S,5R)-3,4-dihydroxy-5-[(sulfamoylamino)methyl]tetrahydrofuran-2-yl]pyrrolo[2,3-d]pyrimidin-5-yl]ethynyl]-7-fluoro-4-methyl-2,3-dihydro-1,4-benzoxazine], the “RTV comparison with Comparative Example” value [2] is reported as “significantly lower than that of the Comparative Example” and the “RTV comparison with control on day 15” value [2] is reported as “significantly lower than that of the control”.

With `Nc1ncnc2c1c(C#Cc1c(F)cccc1F)cn2[C@@H]1O[C@H](CNS(N)(=O)=O)[C@@H](O)[C@H]1O` [Example 1, 4-Amino-5-[2-(2,6-difluorophenyl)ethynyl]-7-[(2R,3R,4S,5R)-3,4-dihydroxy-5-[(sulfamoylamino)methyl]tetrahydrofuran-2-yl]pyrrolo[2,3-d]pyrimidine] the “RTV comparison with Comparative Example” value ([11]; Aspin-Welch's t-test) was “significantly lower than that of the Comparative Example”, the “RTV15 comparison with control” value [11] was “significantly lower than that of the control” and the “change of the body weight” value ([17]; HCT-116 nude mice, Test Example 5) was “within an acceptable degree”.

Work on `Nc1ncnc2c1c(C#Cc1c(F)cc(N3CC[C@H](O)C3)cc1F)cn2[C@@H]1C[C@H](CNS(N)(=O)=O)[C@@H](O)[C@H]1O` [Example 121, 4-Amino-5-[2-[2,6-difluoro-4-[(3S)-3-hydroxypyrrolidin-1-yl]phenyl]ethynyl]-7-[(1R,2S,3R,4R)-2,3-dihydroxy-4-[(sulfamoylamino)methyl]cyclopentyl]pyrrolo[2,3-d]pyrimidine] yielded an IC50 [18] of 0.0062 µM.

With `Nc1ncnc2c1c(C#Cc1c(F)cc(N3CC[C@H](F)C3)cc1F)cn2[C@@H]1C[C@H](CNS(N)(=O)=O)[C@@H](O)[C@H]1O` [Example 116, 4-Amino-5-[2-[2,6-difluoro-4-[(3S)-3-fluoropyrrolidin-1-yl]phenyl]ethynyl]-7-[(1R,2S,3R,4R)-2,3-dihydroxy-4-[(sulfamoylamino)methyl]cyclopentyl]pyrrolo[2,3-d]pyrimidine] the IC50 [18] was 0.0051 µM.
